Measured values published in patent publication US20250002492A1, “COMPOSITIONS OF FOLATE ABSORPTION INHIBITORS AND METHODS THEREOF” (THE TEXAS A&M UNIVERSITY SYSTEM, priority 2023, published 2025).

Molecular target: T1, Folate Uptake Transporter (PCFT) in Caco2 cells (Homo sapiens, UniProt Q96NT5)
T1 construct: These cells express high levels of the PCFT/SLC46A1 receptor; host or cells: Caco-2
T1 sequence (Q96NT5 1-459): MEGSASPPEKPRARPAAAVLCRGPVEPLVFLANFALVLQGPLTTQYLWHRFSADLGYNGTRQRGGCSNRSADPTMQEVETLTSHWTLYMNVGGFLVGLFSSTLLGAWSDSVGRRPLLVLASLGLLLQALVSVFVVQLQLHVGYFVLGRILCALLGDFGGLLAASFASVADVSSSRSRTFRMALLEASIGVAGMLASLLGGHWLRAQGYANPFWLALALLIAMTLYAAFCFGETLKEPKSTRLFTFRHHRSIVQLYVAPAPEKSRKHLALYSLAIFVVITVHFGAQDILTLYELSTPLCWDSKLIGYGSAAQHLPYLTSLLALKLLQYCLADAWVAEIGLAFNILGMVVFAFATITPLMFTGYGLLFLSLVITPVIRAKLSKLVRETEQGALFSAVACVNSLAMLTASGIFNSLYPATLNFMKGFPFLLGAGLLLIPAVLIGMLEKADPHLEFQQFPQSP
Assay: Folate uptake transporter substrate assessment in Caco2 cell line (compound uptake with and without pemetrexed)
Type: in vitro ADME
Protocol: Cell Plates were Prepared According to the Methods of Example 8 Using Caco-2 Cells from American Type Culture Collection at Passage 37.
The transport buffer (HBSS with 10 mM MES, pH 5.5) was prepared by weighing 1.952 g of MES and 0.35 g sodium hydrogen carbonate and adding into 900 mL of pure water followed by sonication to dissolve the content. Following the transfer of 100 mL of 10×HBSS into the solution. The solution was placed on a stirrer, the pH was slowly adjusted with hydrochloric acid to 5.5, and then the solution was filtered to get HBSS solution (with 10 mM MES, pH 5.5).
The test compounds and folic acid (1 μM) substrate solutions were prepared by diluting with pH 5.5 buffer. Next, the test compounds and folic acid (1 μM) substrate solution+positive control inhibitor (pemetrexed, 50 μM) were prepared. For the solution without inhibitor, DMSO was diluted with corresponding substrate solution to get the working incubation solution.
For the solution with inhibitor, the pre-incubation solution was prepared by adding the positive control inhibitor (pemetrexed, 50 μM) in pH 5.5 buffer. For the solution without inhibitor, DMSO was diluted with pH 5.5 buffer and used as the vehicle control.
When the 8-10 day Caco-2 cultured cells reached confluence and were differentiated, they were ready to be used for transport studies. The Caco-2 plate was removed from the incubator, and the medium was removed from the 24-well Plates. Next, cells were washed 3 times with 300 μL of pre-warmed pH 5.5 buffer. Then, 300 μL of pre-incubation solution was added into each well and the plate was placed at 37° C. for 30 minutes. The assay was performed in duplicate. After 30 minutes pre-incubation, the pre-incubation solution was aspirated, and 300 μL of pre-warmed working incubation solution was added to start the transporter assay. After 6 minutes incubation, cells were washed by quickly adding/aspirating 300 μL of ice-cold pH 5.5 buffer 4 times. The pH 5.5 buffer was removed and 300 μL of pure water was added into each well. Freeze-thaw in liquid nitrogen and 37° C. incubator was repeated for 3 times to lyse cells. After, centrifugation at 3,300 g was performed for 30 seconds. Next, 50 μL of supernatant was transferred to 200 μL methanol or acetonitrile containing internal standard and centrifuged at 3,300 g for 30 minutes. 200 μL aliquots of the supernatants were used for LC-MS/MS analysis. Standards were treated the same as samples.
A BCA Kit was used to determine the protein content for each well. Bovine serum albumin at 2, 1, 0.5, 0.25, 0.125, 0.0625, 0.0313, 0.0156, 0.00781 and 0.00391 mg/mL was prepared in Phosphate Buffer Saline (PBS, pH 7.4). 10 μL of supernatant was mixed from the previous step with the same volume of PBS. 20 μL of standard or test sample was added into 96-well clear plate and mixed with 200 μL working reagent. After 30 minutes incubation at 37° C., the absorbance at 562 nm was measured on the microplate reader.
Standard-curves: prepared 200 μM DMSO Folic acid solution, samples of 1000 nm, 300 nm, 100 nm, 30 nM, and 10 nM prepared using a PH 5.5 buffer, and a PH 5.5 buffer containing 50 μM of pemetrexed, respectively.
All calculations were carried out using Microsoft Excel. Peak areas were determined from extracted ion chromatograms. Uptake rate, in unit of pmol/mg protein/min, is calculated using the following equation: Uptake rate=Conc./(Protein×Time); Conc. is concentration of drug in cell lysate (nM), Protein is the protein concentration of cell lysate (mg/mL), and Time is the incubation time (minute). Uptake ratio is calculated using the following equation: Uptake ratio=Uptake rate without inhibitor/Uptake rate with inhibitor. Note: The compound was considered as a potential substrate of a particular transporter when the uptake ratio was greater than 2.

Structure (SMILES): CC(=O)N1CCC(C(=O)N2CCN3C(=O)c4cc(-c5ccccc5)ccc4NC(=O)C3C2)CC1 (centres unmarked) [MPOL_B_1, 2-(1-acetylpiperidine-4-carbonyl)-8-phenyl-1,3,4,12a-tetrahydrobenzo[e]pyrazino[1,2-a][1,4]diazepine-6,12(2H,11H)-dione]
- cell permeability (Caco-2): least permeable
- Uptake Ratio(−Inhibitor/+Inhibitor) (human, Caco-2, 6 min, 1 μM, pH 5.5): 0.76
